Data set [1] can be described thus: Ferric reducing antioxidant power (FRAP). Type of data set: biochemical. Particulars: mean ± standard error. As to the method:
(§1) Ferric reducing antioxidant power (FRAP) and cupric reducing antioxidant capacity (CUPRAC) were measured using kits from Bioquochem (Llanera-Asturias, Spain) according to the manufacturer´s instructions and expressed as trolox equivalents (TE). To determine oxygen radical absorption capacity (ORAC), 73 µL of fluorescein (1.8 mg/L) solution in phosphate buffered saline (PBS, pH 7.4) was mixed with 2 µL of the samples (0–20 µM) in the wells of a 96-well plate. After 15 min incubation (37 °C), 25 µL of freshly prepared 2,2′-azo-bis(2-amidinopropane) dihydrochloride (AAPH, 60 mg/mL) was added to each well except for the negative control, where AAPH was replaced for PBS. The fluorescence (ex./em., 485/535 nm) was recorded immediately and for the next 2 h with the measurement step for 5 min using a microplate reader (SpectraMax i3 Multi-Mode Detection Platform, Molecular Devices, Wokingham, UK).
(§2) The oxidations in living organism caused by free radicals are usually undesirable processes damaging such important biomolecules as DNA, proteins and lipids. The application of antioxidants is one of the most straightforward means to protect these biomolecules from oxidative stress. Many assays are available for determination of antioxidant potential in vitro. These assays are based on the reduction of stable radicals (DPPH), on the competitive bleaching of a probe (ORAC) or on the reduction of iron ions (CUPRAC, FRAP). CUPRAC test is very similar to FRAP assay but is based on the reduction of Cu^2+ in a neutral pH, while FRAP test is based on Fe^3+ in acidic pH. As each assay suffers from some limitations, a set of antioxidant tests was used here to combine more parameters.

The subject of the next data set is HepG2 cell line. The data set is described as follows: Cellular antioxidant activity (CAA). Type of data set: cell-based. Particulars: Homo sapiens; HepG2 cells, DCFH-DA/AAPH; > = no activity noted at the highest concentration tested. The procedure: For cellular antioxidant activity (CAA) assay, the HepG2 cell line (ATCC, CCL-23TM, USA) was cultivated in Eagle’s Minimum Essential Medium (Sigma-Aldrich, USA) supplemented with 10% of foetal bovine serum, 2 mM L-glutamine and 1× Antibiotic Antimycotic Solution (Sigma-Aldrich, St. Louis, MO, USA) in a CO2 incubator (5% CO2, 37 °C, Thermo Fisher Scientific, Waltham, MA, USA) and passaged 2×/week using trypsin-EDTA solution. For the experiments, 100 µL of the cells (1 × 10^6 cells/mL, Cellometer Auto T4 Bright Field Cell Counter, Nexcelom Bioscience, Lawrence, MA, USA) were split into 96-well plates. After 24 h, the cells were washed 3× with PBS (MultiFlo Multi-Mode Dispenser, BioTek, USA) and Dulbecco’s Modified Eagle’s Medium (Sigma-Aldrich, St. Louis, MO, USA) supplemented with the 2′,7′-dichlorodihydrofluorescein diacetate (DCFH-DA, 0.0125 mg/mL) was added to each well together with the tested samples in the concentration range 0–500 µM. After incubation (1 h, CO2 incubator, 37 °C), the medium was manually replaced for AAPH solution (0.16 mg/mL) and the fluorescence (ex./em. 485/540 nm) was recorded immediately for 2 h with 5 min steps.
(§3) The main disadvantage of DPPH scavenging assay is the use of an unnatural radical. Such methods based on competitive probe reactions or indirect methods based on persistent radicals should only be used for preliminary screening purposes. Thus, to better characterize the potential of the obtained conjugates in terms of their biological activity, a series of simple, rapid, sensitive and reproducible biochemical antioxidant assays including FRAP, CUPRAC and ORAC [38] and a more relevant cellular antioxidant activity (CAA [37]) was measured (Table 2). […] Therefore, in this study, we compared two methods with the same mechanism of action: ORAC assay was performed as a classical biochemical method presenting the ability of tested compounds to quench peroxyl radicals generated from AAPH to protect fluorescein from oxidation. This assay serves better as a physical description of the tested compounds [37]. To reflect biological aspect, CAA was measured using the liver carcinoma HepG2 cell line where the compound must enter the cell to fulfil its role as an antioxidant. The CAA assay partially includes the bioavailability, aspects of uptake and metabolism.

The next data set is described as follows: DPPH radical scavenging. To be noted: 20 µM DPPH in methanol, 30 min, 25 °C, mean ± standard error. Type of data set: biochemical. As to the method: The radical scavenging activity of the prepared conjugates, their parent compounds, their equimolar mixtures and retinol was evaluated as their capacity to scavenge 1,1-diphenyl-2-picrylhydrazyl radicals (DPPH, Sigma-Aldrich, Prague, Czech Republic), as described previously with minor modifications. Briefly, 15 µL of the tested substance (final concentration 0–20 mM in DMSO) was mixed with 285 µL of a freshly prepared methanolic DPPH solution (final concentration 20 µM) in a microtiter plate well. After 30 min at 25 °C, the absorbance at 517 nm was measured. The activity was expressed as the concentration of the compound required for reducing the absorbance to 50% (IC50) of its initial value.

Data set [2] can be described thus: Cupric reducing antioxidant capacity (CUPRAC). The format is biochemical. Particulars: mean ± standard error; values marked f: measurement disturbed by the formation of a precipitate. The procedure: as §1, §2
Data set [3] is described as follows: Oxygen radical absorption capacity (ORAC). Type of data set: biochemical. To be noted: fluorescein/AAPH, PBS pH 7.4, 37 °C; mean ± standard error. The procedure: as §1, §3
The nature of data set [4]: Stability of sample during ORAC and CAA measurement. The format is physicochemical. As to the method: Dose-dependent curves were obtained in both ORAC and CAA assay for single compounds resulting in IC50 determination (Table 2). In contrast, no anti-oxidant activity of the conjugates was detected in liver cells in all the concentration range tested up to 50 or 500 µM. In fact, such a large concentration is not expectable in plasma.

Setting [5] is: parent compound alone, read-out: DPPH radical scavenging activity (IC50), parent compound.
The mark [6] stands for this setting: covalent retinoyl conjugate, read-out: DPPH radical scavenging activity (IC50), conjugate with retinoic acid.

The structures appear in SMILES notation. Values joined by “and” are separate entries in the source; they are usually repeats but may differ in a detail not shown here. Equal values may be shown once.

For `CC1=C(/C=C/C(C)=C/C=C/C(C)=C/CO)C(C)(C)CCC1` [compound 1, Retinol], the “FRAP (ferric-reducing antioxidant potential, trolox equivalents)” value in data set [1] was 1.76 ± 0.04 TE. Besides, the IC50 (commonly the point on the concentration scale where inhibition reaches its midpoint) in the data set on HepG2 cell line is 1270 ± 147 µM; in the data set “DPPH radical scavenging” (setting [5]), 1480 µM and 745 µM; in data set [3], 169 ± 12 µM. Also, in data set [2], the “CUPRAC (cupric reducing antioxidant capacity)” value is 0.09 ± 0.01^f TE.

For `COc1cc([C@H]2Oc3cc([C@H]4Oc5cc(OC(=O)/C=C(C)/C=C/C=C(C)/C=C/C6=C(C)CCCC6(C)C)cc(O)c5C(=O)[C@@H]4O)ccc3O[C@@H]2CO)ccc1O` [6a, Silybin A-7-O-retinoate], the “FRAP (ferric-reducing antioxidant potential, trolox equivalents)” value in data set [1] is listed as 0.038 ± 0.002 *^,# TE. The IC50 in the data set on HepG2 cell line is over 50 µM; in the data set “DPPH radical scavenging” (setting [6]), 379 µM. In data set [4], the “Stability during ORAC and CAA measurement” value was “unstable and decomposed”. Moreover, the “CUPRAC (cupric reducing antioxidant capacity)” value in data set [2] is reported as 0.21 ± 0.02 TE.

Turning to `COc1cc(C2Oc3cc(-c4oc5cc(O)cc(O)c5c(=O)c4O)ccc3OC2CO)ccc1O` (stereo not drawn) [compound 4, 2,3-dehydrosilybin], the “FRAP (ferric-reducing antioxidant potential, trolox equivalents)” value in data set [1] was determined as 4.06 ± 0.05 TE. In addition, the IC50 in the data set on HepG2 cell line was determined as 10.9 ± 0.5 µM; in the data set “DPPH radical scavenging” (setting [5]), 19.2 ± 0.3 µM; in data set [3] it was 9.6 ± 0.4 µM. In addition, the “CUPRAC (cupric reducing antioxidant capacity)” value in data set [2] turned out to be 0.25 ± 0.00 TE.

`COc1cc([C@@H]2Oc3cc([C@H]4Oc5cc(O)cc(O)c5C(=O)[C@@H]4O)ccc3O[C@H]2CO)ccc1O` [3b, silybin B]: the “FRAP (ferric-reducing antioxidant potential, trolox equivalents)” value in data set [1] came to 0.268 ± 0.009 TE. Further, the figures for the IC50 (in the data set on HepG2 cell line; in the data set “DPPH radical scavenging” (setting [5]); in data set [3]) were 6.8 ± 0.5 µM, 659 ± 29 µM and 8 ± 0.3 µM, respectively. For the same molecule, the “CUPRAC (cupric reducing antioxidant capacity)” value in data set [2] turned out to be 0.16 ± 0.02 TE.

Regarding `COc1cc([C@@H]2Oc3cc([C@H]4Oc5cc(OC(=O)/C=C(C)/C=C/C=C(C)/C=C/C6=C(C)CCCC6(C)C)cc(O)c5C(=O)[C@@H]4O)ccc3O[C@H]2CO)ccc1O` [6b, Silybin B-7-O-retinoate], the “FRAP (ferric-reducing antioxidant potential, trolox equivalents)” value in data set [1] is reported as 0.010 ± 0.001 *^,# TE. Moreover, the IC50 in the data set with HepG2 cell line was over 500 µM; in “DPPH radical scavenging” (setting [6]), 540 µM; in data set [3] it was 230 ± 8 µM. Besides, in data set [2], the “CUPRAC (cupric reducing antioxidant capacity)” value is 0.04 ± 0.01^f TE.

Regarding `COc1cc([C@H]2Oc3ccc([C@H]4Oc5cc(O)cc(O)c5C(=O)[C@@H]4O)cc3O[C@@H]2CO)ccc1O` [5a, isosilybin A], the “FRAP (ferric-reducing antioxidant potential, trolox equivalents)” value in data set [1] was 0.280 ± 0.006 TE. The IC50 was over 100 µM in the data set on HepG2 cell line, 783 ± 9 µM in the data set “DPPH radical scavenging” (setting [5]) and 4.3 ± 1.1 µM in data set [3]. The “CUPRAC (cupric reducing antioxidant capacity)” value in data set [2] is 0.16 ± 0.02 TE.

As to `CC1=C(/C=C/C(C)=C/C=C/C(C)=C/C(=O)O)C(C)(C)CCC1` [compound 2, Retinoic acid], in data set [1], the “FRAP (ferric-reducing antioxidant potential, trolox equivalents)” value was 0.62 ± 0.02 TE. Moreover, the IC50 was 460 ± 211 µM in the data set on HepG2 cell line; 745 µM and 1480 µM in the data set “DPPH radical scavenging” (setting [5]); 13 ± 2 µM in data set [3]. In addition, the “CUPRAC (cupric reducing antioxidant capacity)” value in data set [2] is recorded as 0.10 ± 0.02^f TE.

For `COc1cc([C@H]2Oc3cc([C@H]4Oc5cc(O)cc(O)c5C(=O)[C@@H]4O)ccc3O[C@@H]2CO)ccc1O` [3a, silybin A], in data set [1], the “FRAP (ferric-reducing antioxidant potential, trolox equivalents)” value was found to be 0.278 ± 0.005 TE. Further, the figures for the IC50 (in the data set on HepG2 cell line; in “DPPH radical scavenging” (setting [5]); in data set [3]) were 10 ± 0.7 µM, 818 ± 22 µM and 8.5 ± 0.4 µM, respectively. The “CUPRAC (cupric reducing antioxidant capacity)” value in data set [2] is 0.20 ± 0.00 TE.

`COc1cc(C2Oc3cc([C@H]4Oc5cc(O)cc(O)c5C(=O)[C@@H]4O)ccc3OC2CO)ccc1O` (stereo partly drawn) [3ab, Silybin]: the “FRAP (ferric-reducing antioxidant potential, trolox equivalents)” value in data set [1] is on record as 0.335 ± 0.006 TE. Moreover, the IC50 in the data set on HepG2 cell line was 11.8 ± 0.3 µM; in “DPPH radical scavenging” (setting [5]), 472 ± 16 µM; in data set [3], 7.8 ± 0.7 µM. Moreover, the “CUPRAC (cupric reducing antioxidant capacity)” value in data set [2] amounted to 0.17 ± 0.00 TE.

Consider `COc1cc(C2Oc3cc([C@H]4Oc5cc(OC(=O)/C=C(C)/C=C/C=C(C)/C=C/C6=C(C)CCCC6(C)C)cc(O)c5C(=O)[C@@H]4O)ccc3OC2CO)ccc1O` (stereo partly drawn) [6ab, Silybin-7-O-retinoate], for which the “FRAP (ferric-reducing antioxidant potential, trolox equivalents)” value in data set [1] is 0.03 ± 0.02 *^,# TE. For the same molecule, the results for the IC50 (with HepG2 cell line; in the data set “DPPH radical scavenging” (setting [6]); in data set [3]) were over 500 µM, 666 µM and 91 ± 4 µM, respectively. Also, the “CUPRAC (cupric reducing antioxidant capacity)” value in data set [2] was 0.22 ± 0.01 TE.

For the molecule `COc1cc([C@H]2Oc3ccc([C@H]4Oc5cc(OC(=O)/C=C(C)/C=C/C=C(C)/C=C/C6=C(C)CCCC6(C)C)cc(O)c5C(=O)[C@@H]4O)cc3O[C@@H]2CO)ccc1O` [8a, Isosilybin A-7-O-retinoate], the “FRAP (ferric-reducing antioxidant potential, trolox equivalents)” value in data set [1] is 0.022 ± 0.003 *^,# TE. For the same molecule, the IC50 is over 500 µM in the data set on HepG2 cell line, 2360 µM in the data set “DPPH radical scavenging” (setting [6]) and 174 ± 7 µM in data set [3]. For the same molecule, in data set [2], the “CUPRAC (cupric reducing antioxidant capacity)” value was 0.11 ± 0.01^f TE.

With `COc1cc(C2Oc3cc(-c4oc5cc(O)cc(O)c5c(=O)c4OC(=O)/C=C(C)/C=C/C=C(C)/C=C/C4=C(C)CCCC4(C)C)ccc3OC2CO)ccc1O` (stereo not drawn) [compound 7, 2,3-Dehydrosilybin AB-3-O-retinoate], in data set [1], the “FRAP (ferric-reducing antioxidant potential, trolox equivalents)” value is listed as 0.034 ± 0.005 *^,# TE. Also, the IC50 in the data set with HepG2 cell line is over 500 µM; in the data set “DPPH radical scavenging” (setting [6]), 734 µM; in data set [3], 130 ± 7 µM. The “CUPRAC (cupric reducing antioxidant capacity)” value in data set [2] is given as 0.07 ± 0.02^f TE.

Values taken from PMC6680806, “Preparation of Retinoyl-Flavonolignan Hybrids and Their Antioxidant Properties” (Antioxidants, 2019).
